Values quoted from earlier work, collected in PMC6172068 (Cancer Science, 2018).

Columns and labels:
[1] = tested on: FLT3 mutation-positive R/R AML; conditions: cited from earlier work
AML [2] = conditions: sorafenib plus intensive chemotherapy, patients aged <60 years; cited from earlier work
AML [3] = conditions: single agent; cited from earlier work

For `CC1(COc2ccc3c(c2)ncn3-c2ccc3cccc(N4CCC(N)CC4)c3n2)COC1` [crenolanib], the antileukemic activity [1] is listed as “strong antileukemic activity”.
For `CNC(=O)c1cc(Oc2ccc(NC(=O)Nc3ccc(Cl)c(C(F)(F)F)c3)cc2)ccn1` [sorafenib], the “3-year event-free survival rate” value (AML [2]) is listed as 40%.
For `CO[C@@H]1[C@H](N(C)C(=O)c2ccccc2)C[C@H]2O[C@]1(C)n1c3ccccc3c3c4c(c5c6ccccc6n2c5c31)C(=O)NC4` [midostaurin], the CR (AML [3]) is listed as “not achieved”.
